According to ChEMBL document CHEMBL1201862, “PubChem BioAssay data set” (2004):
One block for each compound: values may come before it. The source made the active and inactive calls.

Experiments:
[1] = molecular target: NAD-dependent protein deacylase sirtuin-5, mitochondrial (Homo sapiens, UniProt Q9NXA8); assay: SIRT5 desuccinylase inhibitors, dose response, biochemical, fluorescence imaging, cherry-pick, set 5 (AID 720591);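 note: desuccinylation of succinyl peptide AMC substrate read as fluorescence after trypsin release; potency of inhibitors that lower fluorescence and may act on trypsin instead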
Sequence of NAD-dependent protein deacylase sirtuin-5, mitochondrial (Q9NXA8 whole entry): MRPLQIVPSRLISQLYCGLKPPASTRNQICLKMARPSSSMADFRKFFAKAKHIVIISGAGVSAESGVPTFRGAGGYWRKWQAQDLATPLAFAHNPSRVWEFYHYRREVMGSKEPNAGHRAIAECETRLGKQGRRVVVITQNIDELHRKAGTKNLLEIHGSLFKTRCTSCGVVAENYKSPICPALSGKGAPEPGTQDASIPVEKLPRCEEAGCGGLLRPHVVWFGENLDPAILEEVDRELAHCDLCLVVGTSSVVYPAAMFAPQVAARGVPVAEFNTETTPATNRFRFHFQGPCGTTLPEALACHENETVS

[2] = molecular target: Peroxisome proliferator-activated receptor gamma/Nuclear receptor coactivator 2 (Homo sapiens, UniProt P37231); format: functional;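 note: agonist potency for raising coactivator recruitment to the receptor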
[3] = molecular target: Peroxisome proliferator-activated receptor gamma/Nuclear receptor coactivator 1 (Homo sapiens, UniProt P37231); format: functional;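 note: agonist potency as compounds enhance coactivator SRC-1 recruitment to PPARgamma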
Sequence of Peroxisome proliferator-activated receptor gamma/Nuclear receptor coactivator 1 (P37231 whole entry): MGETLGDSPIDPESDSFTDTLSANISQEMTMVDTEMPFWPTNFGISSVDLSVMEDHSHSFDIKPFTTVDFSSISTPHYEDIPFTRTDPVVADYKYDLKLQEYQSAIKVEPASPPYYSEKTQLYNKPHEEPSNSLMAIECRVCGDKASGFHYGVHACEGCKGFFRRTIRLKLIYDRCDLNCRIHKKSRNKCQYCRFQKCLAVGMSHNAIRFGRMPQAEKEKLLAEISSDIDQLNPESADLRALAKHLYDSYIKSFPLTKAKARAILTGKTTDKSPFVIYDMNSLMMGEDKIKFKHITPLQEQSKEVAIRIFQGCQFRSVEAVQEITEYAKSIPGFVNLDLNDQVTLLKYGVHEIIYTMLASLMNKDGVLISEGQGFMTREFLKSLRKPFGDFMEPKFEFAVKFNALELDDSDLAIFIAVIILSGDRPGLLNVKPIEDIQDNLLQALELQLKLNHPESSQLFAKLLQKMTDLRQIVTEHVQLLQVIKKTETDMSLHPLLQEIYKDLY
Sequence of Peroxisome proliferator-activated receptor gamma/Nuclear receptor coactivator 1 (Q15788 whole entry, further chain): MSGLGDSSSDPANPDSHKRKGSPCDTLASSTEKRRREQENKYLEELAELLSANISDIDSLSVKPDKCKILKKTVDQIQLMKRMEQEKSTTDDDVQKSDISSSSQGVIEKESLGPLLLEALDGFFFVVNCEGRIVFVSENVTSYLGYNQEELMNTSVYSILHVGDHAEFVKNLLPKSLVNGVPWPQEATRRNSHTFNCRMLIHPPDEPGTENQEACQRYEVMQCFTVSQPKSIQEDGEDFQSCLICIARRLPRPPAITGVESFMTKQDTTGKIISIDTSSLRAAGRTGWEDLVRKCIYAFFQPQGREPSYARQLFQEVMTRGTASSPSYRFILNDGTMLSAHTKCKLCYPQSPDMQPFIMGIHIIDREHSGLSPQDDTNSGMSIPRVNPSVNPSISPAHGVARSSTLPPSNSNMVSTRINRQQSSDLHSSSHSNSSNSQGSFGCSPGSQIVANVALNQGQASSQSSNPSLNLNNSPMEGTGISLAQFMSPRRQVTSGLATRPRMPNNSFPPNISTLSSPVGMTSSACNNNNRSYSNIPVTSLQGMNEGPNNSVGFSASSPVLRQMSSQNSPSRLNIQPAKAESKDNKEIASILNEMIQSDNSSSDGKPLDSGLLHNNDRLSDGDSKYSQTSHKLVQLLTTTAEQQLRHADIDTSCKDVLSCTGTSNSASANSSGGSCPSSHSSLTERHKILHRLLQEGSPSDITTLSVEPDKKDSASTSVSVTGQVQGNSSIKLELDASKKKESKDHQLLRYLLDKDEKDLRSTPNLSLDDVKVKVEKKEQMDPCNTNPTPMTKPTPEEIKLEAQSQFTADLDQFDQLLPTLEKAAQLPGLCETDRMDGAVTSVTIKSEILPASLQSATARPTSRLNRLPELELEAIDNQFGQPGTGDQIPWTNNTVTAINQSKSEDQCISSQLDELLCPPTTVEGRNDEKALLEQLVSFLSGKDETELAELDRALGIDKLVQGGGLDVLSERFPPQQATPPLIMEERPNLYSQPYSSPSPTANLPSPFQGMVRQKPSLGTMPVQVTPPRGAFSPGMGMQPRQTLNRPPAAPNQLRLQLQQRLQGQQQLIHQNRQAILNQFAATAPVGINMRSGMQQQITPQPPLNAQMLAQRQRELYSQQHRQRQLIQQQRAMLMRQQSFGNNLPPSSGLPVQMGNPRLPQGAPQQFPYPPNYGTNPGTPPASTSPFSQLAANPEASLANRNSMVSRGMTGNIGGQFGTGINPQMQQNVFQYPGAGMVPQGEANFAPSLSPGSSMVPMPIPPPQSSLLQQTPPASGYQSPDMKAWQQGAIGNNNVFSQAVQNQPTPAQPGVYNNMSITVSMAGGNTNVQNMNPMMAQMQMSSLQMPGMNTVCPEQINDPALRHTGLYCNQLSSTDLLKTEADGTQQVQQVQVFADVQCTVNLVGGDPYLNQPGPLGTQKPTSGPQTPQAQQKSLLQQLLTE

[4] = molecular target: Peroxisome proliferator-activated receptor gamma/Nuclear receptor coactivator 3 (Homo sapiens, UniProt P37231); format: functional;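 note: agonist potency for raising coactivator recruitment to the receptor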
[5] = molecular target: T1, Cytochrome P450 2C19 (Homo sapiens, UniProt P33261); assay: Cytochrome panel assay with activity outcomes. Panel member name: p450-cyp2c19 Compounds with AC50 equal or less than 10 uM are considered active; format: functional; settings: read-out: AC50
T1 sequence (P33261 whole entry): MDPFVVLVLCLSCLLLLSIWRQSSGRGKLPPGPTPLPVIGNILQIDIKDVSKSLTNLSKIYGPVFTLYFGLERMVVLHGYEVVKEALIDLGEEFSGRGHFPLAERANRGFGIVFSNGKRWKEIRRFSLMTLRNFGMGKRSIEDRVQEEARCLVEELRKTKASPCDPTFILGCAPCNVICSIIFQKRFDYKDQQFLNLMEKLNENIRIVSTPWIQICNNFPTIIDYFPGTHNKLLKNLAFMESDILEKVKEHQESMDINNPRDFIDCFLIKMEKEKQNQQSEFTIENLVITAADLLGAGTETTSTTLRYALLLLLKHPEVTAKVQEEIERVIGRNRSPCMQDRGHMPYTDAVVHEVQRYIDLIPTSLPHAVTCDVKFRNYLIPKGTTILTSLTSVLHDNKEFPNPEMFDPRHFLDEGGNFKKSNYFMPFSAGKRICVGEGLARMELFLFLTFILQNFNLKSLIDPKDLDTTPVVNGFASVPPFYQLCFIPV

[6] = A549 cell cytotoxicity, dose response, cytotoxicity control, plate reader, cherry-pick, antagonist series (AID 743412); format: functional, cell-based
[7] = HepG2 cell cytotoxicity, dose response, cytotoxicity control, plate reader, cherry-pick, antagonist series (AID 743416); format: functional, cell-based
[8] = LGR2 antagonists, dose response, cell-based, HEK293, CRE-luciferase reporter, cherry pick, set 2 (AID 743343); format: functional;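 note: transfected cells were stimulated with diluted bursicon conditioned medium after compound addition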
[9] = MC4R antagonists, dose response, counter-screen for LGR2 antagonist project, cell-based, plate reader, cherry pick (AID 743444); format: functional;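 note: transfected HEK 293 cells stimulated with alpha-MSH peptide; potency of inhibitors of the alpha-MSH evoked signal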
[10] = molecular target: T2, Oxysterols receptor LXR-beta (Homo sapiens, UniProt P55055); format: functional, cell-based;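 note: Cell-based luminescence dose-response assay of agonist activity at LXR, run as a confirmatory counterscreen to a daf-12 agonist screen; agonist potency from rising luciferase signal of a Gal4-LXR reporter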
T2 sequence (P55055 whole entry): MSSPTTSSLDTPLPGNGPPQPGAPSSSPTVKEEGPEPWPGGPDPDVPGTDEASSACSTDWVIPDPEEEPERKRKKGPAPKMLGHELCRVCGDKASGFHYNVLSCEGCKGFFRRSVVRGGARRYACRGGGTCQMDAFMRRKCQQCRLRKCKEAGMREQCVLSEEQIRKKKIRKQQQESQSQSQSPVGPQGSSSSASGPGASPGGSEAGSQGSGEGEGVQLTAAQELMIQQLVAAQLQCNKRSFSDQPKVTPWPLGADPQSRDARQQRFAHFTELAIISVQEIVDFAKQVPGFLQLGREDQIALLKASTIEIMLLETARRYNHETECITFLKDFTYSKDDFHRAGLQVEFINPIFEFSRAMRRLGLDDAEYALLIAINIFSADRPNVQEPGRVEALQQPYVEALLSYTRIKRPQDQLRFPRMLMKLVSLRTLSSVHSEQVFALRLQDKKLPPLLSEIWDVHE

[11] = molecular target: Cytochrome P450 2D6 (Homo sapiens, UniProt P10635);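 note: CYP2D6 member of a cytochrome P450 panel assay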
Sequence of Cytochrome P450 2D6 (P10635 whole entry): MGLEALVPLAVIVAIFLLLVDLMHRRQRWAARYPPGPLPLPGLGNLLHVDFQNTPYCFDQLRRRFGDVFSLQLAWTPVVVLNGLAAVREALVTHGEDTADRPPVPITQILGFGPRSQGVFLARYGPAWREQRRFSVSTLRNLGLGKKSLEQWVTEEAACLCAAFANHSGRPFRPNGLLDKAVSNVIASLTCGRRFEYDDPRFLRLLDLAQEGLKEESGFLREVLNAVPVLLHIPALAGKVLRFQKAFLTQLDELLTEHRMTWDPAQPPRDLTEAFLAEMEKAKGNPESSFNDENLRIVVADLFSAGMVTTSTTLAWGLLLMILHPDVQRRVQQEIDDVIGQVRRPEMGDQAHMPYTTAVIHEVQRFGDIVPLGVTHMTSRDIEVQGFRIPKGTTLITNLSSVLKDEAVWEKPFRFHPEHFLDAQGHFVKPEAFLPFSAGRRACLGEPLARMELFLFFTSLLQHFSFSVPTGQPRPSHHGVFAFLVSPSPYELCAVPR

[12] = cells
[13] = inhibitors of intracellular T. cruzi replication, confirmation, NIH3T3 host cells, beta-gal luminescence (AID 2044); format: functional, cell-based;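 note: intracellular parasites grown in NIH/3T3 mouse fibroblasts as host cells; luminescent beta-galactosidase reporter signal from transgenic T. cruzi replicating inside host cells; inhibitors lower the luminescence signal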
[14] = cytotoxicity toward NIH3T3 fibroblasts, dose response, counter-screen, cell-based, ATP luminescence, mouse fibroblasts (AID 2010); format: functional;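 note: cells exposed to compound for about 90 hours before reading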
[15] = cells; remark: listed apart in the source
[16] = Luminescence-based cell-based high throughput dose response assay to identify activators of the DAF-12 from the parasite S. stercoralis (ssDAF-12).; format: functional
[17] = molecular target: T2, Oxysterols receptor LXR-beta; assay: LXR agonists, Gal4 luciferase reporter, dose response, counter-screen for ssDAF-12 agonist project, cell-based, luminescence, HEK293, S. stercoralis campaign (AID 720737); format: functional; settings: read-out: IC50 (the source's name)
[18] = molecular target: T3, Dual specificity protein phosphatase 6 (Rattus norvegicus, UniProt Q64346); assay: MKP-3 phosphatase inhibitors, primary screen, biochemical, rat enzyme, in vitro (AID 425)
T3 sequence (Q64346 whole entry): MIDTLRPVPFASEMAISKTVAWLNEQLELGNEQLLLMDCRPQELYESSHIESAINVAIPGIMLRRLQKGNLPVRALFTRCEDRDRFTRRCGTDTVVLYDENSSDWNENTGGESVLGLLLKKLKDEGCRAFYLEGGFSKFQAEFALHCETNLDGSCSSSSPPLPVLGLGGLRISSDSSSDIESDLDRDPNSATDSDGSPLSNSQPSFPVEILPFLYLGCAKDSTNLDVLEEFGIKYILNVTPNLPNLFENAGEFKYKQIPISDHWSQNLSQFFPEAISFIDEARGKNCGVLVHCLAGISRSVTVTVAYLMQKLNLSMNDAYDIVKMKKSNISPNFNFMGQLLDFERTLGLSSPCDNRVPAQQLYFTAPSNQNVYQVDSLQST

[19] = molecular target: Mitogen-activated protein kinase 10 (Homo sapiens, UniProt P53779); assay: Dose response biochemical screening assay for inhibitors of c-Jun N-Terminal Kinase 3 (JNK3). [Related pubchem assays: 746 ]
Sequence of Mitogen-activated protein kinase 10 (P53779 whole entry): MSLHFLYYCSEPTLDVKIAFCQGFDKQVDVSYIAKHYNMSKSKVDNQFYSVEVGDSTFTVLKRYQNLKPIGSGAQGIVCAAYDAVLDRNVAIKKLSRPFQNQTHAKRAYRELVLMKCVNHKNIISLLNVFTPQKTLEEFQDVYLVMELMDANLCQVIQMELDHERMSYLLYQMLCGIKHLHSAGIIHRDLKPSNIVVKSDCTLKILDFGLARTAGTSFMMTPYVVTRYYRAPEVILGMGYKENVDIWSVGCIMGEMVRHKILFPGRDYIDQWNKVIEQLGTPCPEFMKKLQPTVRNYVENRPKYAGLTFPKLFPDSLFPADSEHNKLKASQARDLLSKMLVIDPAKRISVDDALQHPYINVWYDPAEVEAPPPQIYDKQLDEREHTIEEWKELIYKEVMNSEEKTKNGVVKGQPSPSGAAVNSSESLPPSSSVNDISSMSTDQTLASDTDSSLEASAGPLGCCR

[20] = molecular target: T1, Cytochrome P450 2C19; assay: qHTS Assay for Inhibitors and Substrates of Cytochrome P450 2C19. [Related pubchem assays: 410 ]; format: ADME; settings: read-out: Potency
[21] = molecular target: Estrogen receptor beta (Homo sapiens, UniProt Q92731);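 note: recombinant ER-beta bound to coactivator SRC1 peptide in presence of estradiol agonist; inhibitors block coactivator peptide binding and lower the FRET signal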
Sequence of Estrogen receptor beta (Q92731 whole entry): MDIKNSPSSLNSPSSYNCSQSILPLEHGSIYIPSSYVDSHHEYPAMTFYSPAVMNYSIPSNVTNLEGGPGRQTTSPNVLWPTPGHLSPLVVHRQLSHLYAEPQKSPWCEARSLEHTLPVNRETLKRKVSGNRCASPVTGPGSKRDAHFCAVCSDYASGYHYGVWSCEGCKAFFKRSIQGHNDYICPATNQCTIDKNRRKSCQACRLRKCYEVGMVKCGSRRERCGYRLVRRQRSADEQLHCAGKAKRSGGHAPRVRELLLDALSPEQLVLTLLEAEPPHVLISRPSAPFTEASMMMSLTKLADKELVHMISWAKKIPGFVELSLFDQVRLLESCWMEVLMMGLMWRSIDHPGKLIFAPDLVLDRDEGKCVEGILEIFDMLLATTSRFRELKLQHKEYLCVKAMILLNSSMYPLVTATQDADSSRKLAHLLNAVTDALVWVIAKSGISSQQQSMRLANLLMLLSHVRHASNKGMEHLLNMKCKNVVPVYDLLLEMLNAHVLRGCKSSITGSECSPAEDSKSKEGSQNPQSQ

[22] = molecular target: T4, Caspase-3 (Homo sapiens, UniProt P42574); format: functional;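 note: Dose-response selectivity test against caspase-3 for candidate inhibitors of sentrin-specific proteases (SENPs)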
T4 sequence (P42574 whole entry): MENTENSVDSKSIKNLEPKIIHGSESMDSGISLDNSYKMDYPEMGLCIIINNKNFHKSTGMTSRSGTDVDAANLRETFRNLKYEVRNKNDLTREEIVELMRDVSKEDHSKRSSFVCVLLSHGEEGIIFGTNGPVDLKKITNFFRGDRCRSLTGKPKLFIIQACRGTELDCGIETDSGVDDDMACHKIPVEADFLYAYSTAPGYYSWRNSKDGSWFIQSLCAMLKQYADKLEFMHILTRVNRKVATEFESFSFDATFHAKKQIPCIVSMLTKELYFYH

[23] = molecular target: T5, Sentrin-specific protease 7 (Homo sapiens, UniProt Q9BQF6); format: functional;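 note: Luminescence-based dose-response confirmation of ultra-high-throughput screening hits, measuring inhibition of SENP7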
T5 sequence (Q9BQF6 whole entry): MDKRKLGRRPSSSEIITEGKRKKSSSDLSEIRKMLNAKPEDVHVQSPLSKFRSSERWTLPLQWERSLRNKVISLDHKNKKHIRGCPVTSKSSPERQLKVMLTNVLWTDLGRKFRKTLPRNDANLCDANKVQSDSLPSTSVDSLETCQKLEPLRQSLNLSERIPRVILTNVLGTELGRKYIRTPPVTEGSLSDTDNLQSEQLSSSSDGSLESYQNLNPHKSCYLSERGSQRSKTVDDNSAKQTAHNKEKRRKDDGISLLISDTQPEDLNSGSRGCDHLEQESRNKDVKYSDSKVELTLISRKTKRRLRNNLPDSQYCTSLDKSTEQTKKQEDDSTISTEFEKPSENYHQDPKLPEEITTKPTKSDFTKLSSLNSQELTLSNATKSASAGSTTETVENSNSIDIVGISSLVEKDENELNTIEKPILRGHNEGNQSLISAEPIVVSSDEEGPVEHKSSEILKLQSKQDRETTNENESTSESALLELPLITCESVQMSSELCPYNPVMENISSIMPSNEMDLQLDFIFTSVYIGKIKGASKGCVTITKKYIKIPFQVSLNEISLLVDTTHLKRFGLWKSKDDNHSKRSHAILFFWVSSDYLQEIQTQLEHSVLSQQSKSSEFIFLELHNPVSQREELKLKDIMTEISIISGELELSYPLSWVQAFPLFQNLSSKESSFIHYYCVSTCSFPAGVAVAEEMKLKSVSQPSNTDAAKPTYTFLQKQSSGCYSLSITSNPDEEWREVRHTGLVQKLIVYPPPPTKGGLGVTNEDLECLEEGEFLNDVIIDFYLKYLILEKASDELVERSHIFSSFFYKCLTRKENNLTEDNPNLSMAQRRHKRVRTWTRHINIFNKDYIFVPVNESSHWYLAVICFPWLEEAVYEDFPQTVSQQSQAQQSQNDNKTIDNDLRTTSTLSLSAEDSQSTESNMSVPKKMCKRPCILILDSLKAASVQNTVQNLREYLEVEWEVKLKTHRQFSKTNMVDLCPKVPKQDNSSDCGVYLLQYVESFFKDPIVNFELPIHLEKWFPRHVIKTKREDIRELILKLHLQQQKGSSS

[24] = molecular target: T6, Sentrin-specific protease 6 (Homo sapiens, UniProt Q9GZR1); format: functional;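 note: Luminescence-based dose-response confirmatory assay of SENP6 inhibition, following up an ultra-high-throughput screen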
T6 sequence (Q9GZR1 whole entry): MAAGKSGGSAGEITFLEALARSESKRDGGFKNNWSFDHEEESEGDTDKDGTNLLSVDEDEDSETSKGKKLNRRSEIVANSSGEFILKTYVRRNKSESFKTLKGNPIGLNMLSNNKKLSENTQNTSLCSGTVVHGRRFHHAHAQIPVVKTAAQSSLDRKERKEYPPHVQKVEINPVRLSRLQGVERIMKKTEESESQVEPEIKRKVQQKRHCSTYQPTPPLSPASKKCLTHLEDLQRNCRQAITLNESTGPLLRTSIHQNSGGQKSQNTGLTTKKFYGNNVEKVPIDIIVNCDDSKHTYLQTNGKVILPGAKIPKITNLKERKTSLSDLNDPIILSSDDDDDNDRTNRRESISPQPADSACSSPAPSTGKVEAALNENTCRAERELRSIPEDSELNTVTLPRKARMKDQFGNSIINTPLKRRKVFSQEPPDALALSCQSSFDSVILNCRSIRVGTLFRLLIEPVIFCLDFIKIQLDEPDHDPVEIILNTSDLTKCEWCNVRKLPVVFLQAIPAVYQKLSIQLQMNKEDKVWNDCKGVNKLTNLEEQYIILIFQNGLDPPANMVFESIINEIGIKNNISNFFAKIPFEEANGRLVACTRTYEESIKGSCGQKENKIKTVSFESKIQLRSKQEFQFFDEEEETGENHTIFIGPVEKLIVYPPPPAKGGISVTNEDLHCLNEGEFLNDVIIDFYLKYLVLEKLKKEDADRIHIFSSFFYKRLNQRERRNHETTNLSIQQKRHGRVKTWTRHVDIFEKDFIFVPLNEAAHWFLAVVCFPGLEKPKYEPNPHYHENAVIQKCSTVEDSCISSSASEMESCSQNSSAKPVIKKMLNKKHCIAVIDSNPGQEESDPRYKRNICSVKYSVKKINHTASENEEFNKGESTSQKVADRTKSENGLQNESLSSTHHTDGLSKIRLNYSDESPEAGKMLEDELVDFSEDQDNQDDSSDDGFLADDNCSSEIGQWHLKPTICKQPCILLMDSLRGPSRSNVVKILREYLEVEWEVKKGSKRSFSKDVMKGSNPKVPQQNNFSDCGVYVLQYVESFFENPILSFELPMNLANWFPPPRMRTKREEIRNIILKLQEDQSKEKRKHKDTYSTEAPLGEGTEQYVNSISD

[25] = molecular target: T7, Sentrin-specific protease 8 (Homo sapiens, UniProt Q96LD8); format: functional;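 note: luminescence read-out of SENP8 inhibition, dose-response confirmation following an ultra-high-throughput screen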
T7 sequence (Q96LD8 whole entry): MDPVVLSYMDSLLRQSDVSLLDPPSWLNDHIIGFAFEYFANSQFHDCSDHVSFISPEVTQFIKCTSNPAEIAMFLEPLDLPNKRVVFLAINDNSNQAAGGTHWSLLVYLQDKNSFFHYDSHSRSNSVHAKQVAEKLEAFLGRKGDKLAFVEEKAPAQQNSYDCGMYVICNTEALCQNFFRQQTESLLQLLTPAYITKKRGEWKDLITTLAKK

[26] = molecular target: Protein Tat (Human immunodeficiency virus type 1 group M subtype B (isolate HXB2)(HIV-1), UniProt P04608); format: functional;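 note: tat binding to TAR RNA read out by fluorescence polarization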
Sequence of Protein Tat (P04608 whole entry): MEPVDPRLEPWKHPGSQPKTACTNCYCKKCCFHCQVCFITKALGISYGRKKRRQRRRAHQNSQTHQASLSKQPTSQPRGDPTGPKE

[27] = inhibitors of Vif binding to APOBEC3G peptide, primary screen, biochemical, TR-FRET, GST-Vif 1-94, biotin-A3G peptide, dose response retest (AID 1117319); format: functional;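 note: TR-FRET signal of purified GST-Vif binding a biotinylated A3G peptide; inhibitors lower the FRET signal by blocking Vif and A3G binding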

AC50 [1]: > 30 µM (inactive)
SMILES: COC(=O)[C@]12CCCCC=C1N(Cc1ccc(Cl)cc1Cl)C(=O)[C@H](CC(=O)NCc1cccc(C(F)(F)F)c1)C2

IC50 [18]: > 100 µM (not active)
SMILES: CC(=O)[C@@H]1[C@@H]2C(=O)N(c3ccc(F)c(Cl)c3)C(=O)[C@@H]2C2c3ccccc3C=CN21 (some centres not stated)

IC50 [19]: > 93.1 µM (not active)
SMILES: Cc1ccc(C(=O)OCc2cc3ccccc3nc2O)cc1

AC50 [20]: 3.98 µM (inconclusive)
SMILES: COc1ccc(OC2C=CC(C#Cc3ccccc3)OC2CO)cc1 (configuration not stated)

IC50 [22]: 43.8 µM (active)
IC50 [23]: 6.21 µM (active)
IC50 [24]: 18.5 µM (active)
AC50 [1]: 10.7 µM (active)
SMILES: Cc1c(NC(=O)c2ccc(NC(=O)C3CC3)cc2)cccc1C(=O)O
IC50 [25]: 25.8 µM (active)

IC50 [26]: > 100 µM (active)
IC50 [27]: > 100 µM (active)
SMILES: O=C(N/N=C/c1ccc[nH]1)c1cccnc1

The next lines start with the compound.

SMILES: Cc1ccc(NC(=O)c2sc3ccccc3c2Cl)nc1
EC50 [2]: 41.5 µM (not active)
EC50 [3]: 53.2 µM (not active)
EC50 [4]: 52 µM (not active)
AC50 [5]: 7.94 µM (inconclusive)
AC50 [6]: 50.8 µM (active)
AC50 [7]: > 52 µM (inactive)
AC50 [8]: 2.52 µM (active)
AC50 [9]: 3.36 µM (active)
EC50 [10]: > 67.5 µM (inactive)
AC50 [11]: 3.16 µM (inconclusive)
EC50 [12]: > 67.5 µM (inactive)

SMILES: O=c1cc(CN2CCN(C/C=C/c3ccccc3)CC2)c2cc(O)ccc2o1
EC50 [13]: < 0.1 µM (active)
EC50 [14]: > 60 µM (not active)
EC50 [15]: 0.101 µM (active)

SMILES: CC(=O)NC(=S)Nc1ccccc1C(=O)NC1CCCCC1
IC50 [16]: > 67.6 µM (inactive)
EC50 [17]: > 67.6 µM (inactive)

SMILES: CCN1CCC(C(N)=O)CC1
IC50 [21]: > 50 µM (not active)

SMILES: O=C(CCNC(=O)c1ccccc1Cl)Nc1ccc(Br)c(C(F)(F)F)c1
IC50 [16]: > 67.5 µM (inactive)
EC50 [17]: > 67.5 µM (inactive)

SMILES: NNc1nc(-c2ccccc2)nc2sc3c(c12)CCCC3
EC50 [10]: > 67.5 µM (inactive)
EC50 [12]: > 67.5 µM (inactive)
